Measured values taken from article PMC5218480 (PLoS ONE, 2017).

Test system: MV-4-11 cells
Assay: Gene expression microarray analysis (Affymetrix PrimeView) and GSEA
Type: cell-based, human
Set-up: RFU PODN (11730768_x_at) / Fold change /veh PODN (11730768_x_at) / RFU LINC00158 (11744669_a_at) / Fold change /veh LINC00158 (11744669_a_at) / RFU DUSP10 (11751237_a_at) / Fold change /veh DUSP10 (11751237_a_at) / RFU ID3 (11757404_x_at) / Fold change /veh ID3 (11757404_x_at) / RFU PLEKHG5 (11737974_s_at) / Fold change /veh PLEKHG5 (11737974_s_at) / RFU LRRC4B (11730491_at) / Fold change /veh LRRC4B (11730491_at) / RFU GIMAP4 (11747438_a_at) / Fold change /veh GIMAP4 (11747438_a_at) / RFU KRT8 (11758183_x_at) / Fold change /veh KRT8 (11758183_x_at) / RFU CNN1 (11734310_a_at) / Fold change /veh CNN1 (11734310_a_at) / RFU VPS37D (11726825_at) / Fold change /veh VPS37D (11726825_at) / RFU C10orf10 (11716522_x_at) / Fold change /veh C10orf10 (11716522_x_at) / RFU KIR2DL2 /// KIR2DL4 /// KIR2DL5A /// KIR2DL5B /// KIR2DS1 /// KIR2DS2 /// KIR2DS3 /// KIR2DS4 /// KIR3DL3 /// KIR3DL3 /// KIR3DS1 (11738374_at) / Fold change /veh KIR2DL2 /// KIR2DL4 /// KIR2DL5A /// KIR2DL5B /// KIR2DS1 /// KIR2DS2 /// KIR2DS3 /// KIR2DS4 /// KIR3DL3 /// KIR3DL3 /// KIR3DS1 (11738374_at) / RFU C1QL1 (11718748_at) / Fold change /veh C1QL1 (11718748_at) / RFU TMPRSS4 (11747572_a_at) / Fold change /veh TMPRSS4 (11747572_a_at) / RFU HAMP (11756126_x_at) / Fold change /veh HAMP (11756126_x_at) / RFU RNFT2 (11725882_a_at) / Fold change /veh RNFT2 (11725882_a_at) / RFU NR4A2 (11747474_a_at) / Fold change /veh NR4A2 (11747474_a_at) / RFU ABCC12 (11746883_a_at) / Fold change /veh ABCC12 (11746883_a_at) / RFU TMEM136 (11760407_x_at) / Fold change /veh TMEM136 (11760407_x_at) / RFU CLDN22 /// WWC2 (11732394_at) / Fold change /veh CLDN22 /// WWC2 (11732394_at) / RFU HLA-DPB1 (11760878_x_at) / Fold change /veh HLA-DPB1 (11760878_x_at) / RFU SPINT1 (11716480_a_at) / Fold change /veh SPINT1 (11716480_a_at) / RFU GAP43 (11754022_s_at) / Fold change /veh GAP43 (11754022_s_at) / RFU A4GNT (11735810_at) / Fold change /veh A4GNT (11735810_at) / RFU PRB3 (11715151_x_at) / Fold change /veh PRB3 (11715151_x_at) / RFU TUBB4B (11761932_at) / Fold change /veh TUBB4B (11761932_at) / RFU CAPN14 (11732068_a_at) / Fold change /veh CAPN14 (11732068_a_at) / RFU TMCC2 (11721928_a_at) / Fold change /veh TMCC2 (11721928_a_at) / RFU IRGQ (11745062_a_at) / Fold change /veh IRGQ (11745062_a_at) / RFU FAM174B (11720279_a_at) / Fold change /veh FAM174B (11720279_a_at) / RFU TMPRSS4 (11748680_a_at) / Fold change /veh TMPRSS4 (11748680_a_at) / RFU FAM212B (11763350_a_at) / Fold change /veh FAM212B (11763350_a_at) / RFU PLEKHG5 (11743358_a_at) / Fold change /veh PLEKHG5 (11743358_a_at) / RFU ZSCAN30 (11745921_a_at) / Fold change /veh ZSCAN30 (11745921_a_at) / RFU CMKLR1 (11741424_a_at) / Fold change /veh CMKLR1 (11741424_a_at) / RFU LOC101060620 /// MAPK8IP1 (11723275_at) / Fold change /veh LOC101060620 /// MAPK8IP1 (11723275_at) / RFU SPTSSB (11747773_x_at) / Fold change /veh SPTSSB (11747773_x_at) / RFU PRSS12 (11739890_at) / Fold change /veh PRSS12 (11739890_at) / RFU BIN1 (11741810_x_at) / Fold change /veh BIN1 (11741810_x_at) / RFU WNT11 (11732464_a_at) / Fold change /veh WNT11 (11732464_a_at) / RFU C10orf10 (11716521_a_at) / Fold change /veh C10orf10 (11716521_a_at) / RFU C5orf56 (11738089_at) / Fold change /veh C5orf56 (11738089_at) / RFU CYB561 (11721691_x_at) / Fold change /veh CYB561 (11721691_x_at) / RFU ANKRD19P (11752326_a_at) / Fold change /veh ANKRD19P (11752326_a_at) / RFU OR2T12 /// OR2T33 /// OR2T8 (11738714_s_at) / Fold change /veh OR2T12 /// OR2T33 /// OR2T8 (11738714_s_at) / RFU VCAN (11748164_a_at) / Fold change /veh VCAN (11748164_a_at) / RFU JSRP1 (11732532_at) / Fold change /veh JSRP1 (11732532_at) / RFU KRTAP10-11 (11738290_x_at) / Fold change /veh KRTAP10-11 (11738290_x_at) / RFU MYO3A (11730013_a_at) / Fold change /veh MYO3A (11730013_a_at) / RFU EBF3 (11725865_a_at) / Fold change /veh EBF3 (11725865_a_at) / RFU CAMK2N1 (11719241_x_at) / Fold change /veh CAMK2N1 (11719241_x_at) / RFU C5orf56 (11738088_a_at) / Fold change /veh C5orf56 (11738088_a_at) / RFU OLFML3 (11715873_a_at) / Fold change /veh OLFML3 (11715873_a_at) / RFU LOC100653217 /// NTM (11731650_a_at) / Fold change /veh LOC100653217 /// NTM (11731650_a_at) / RFU MAPK11 (11762145_a_at) / Fold change /veh MAPK11 (11762145_a_at) / RFU FIZ1 (11724087_x_at) / Fold change /veh FIZ1 (11724087_x_at) / RFU OASL (11726364_x_at) / Fold change /veh OASL (11726364_x_at) / RFU SOX15 (11748057_x_at) / Fold change /veh SOX15 (11748057_x_at) / RFU CD79A (11719716_a_at) / Fold change /veh CD79A (11719716_a_at) / RFU HIST1H1D (11736915_at) / Fold change /veh HIST1H1D (11736915_at) / RFU CASKIN2 (11723855_a_at) / Fold change /veh CASKIN2 (11723855_a_at) / RFU LOC730098 (11760151_x_at) / Fold change /veh LOC730098 (11760151_x_at) / RFU OR4N2 (11742367_at) / Fold change /veh OR4N2 (11742367_at) / RFU PRRT2 (11749266_a_at) / Fold change /veh PRRT2 (11749266_a_at) / RFU SNX32 (11753110_a_at) / Fold change /veh SNX32 (11753110_a_at) / RFU CDHR5 (11726645_a_at) / Fold change /veh CDHR5 (11726645_a_at) / RFU RCAN1 (11760418_a_at) / Fold change /veh RCAN1 (11760418_a_at) / RFU FAM167A (11723789_a_at) / Fold change /veh FAM167A (11723789_a_at) / RFU FAM26E (11764081_at) / Fold change /veh FAM26E (11764081_at) / RFU ISYNA1 (11749810_s_at) / Fold change /veh ISYNA1 (11749810_s_at) / RFU ACY1 (11761880_at) / Fold change /veh ACY1 (11761880_at) / RFU 11764098_at / Fold change /veh 11764098_at / RFU SAMD14 (11745864_x_at) / Fold change /veh SAMD14 (11745864_x_at) / RFU NPB (11741838_a_at) / Fold change /veh NPB (11741838_a_at) / RFU TMPRSS6 (11731388_a_at) / Fold change /veh TMPRSS6 (11731388_a_at) / RFU KRTAP10-2 (11738614_at) / Fold change /veh KRTAP10-2 (11738614_at) / RFU ARHGAP8 /// PRR5-ARHGAP8 (11727945_x_at) / Fold change /veh ARHGAP8 /// PRR5-ARHGAP8 (11727945_x_at) / RFU KRTAP5-7 /// NADSYN1 (11734609_at) / Fold change /veh KRTAP5-7 /// NADSYN1 (11734609_at) / RFU RASL12 (11751679_a_at) / Fold change /veh RASL12 (11751679_a_at) / RFU CDKN2B (11736163_a_at) / Fold change /veh CDKN2B (11736163_a_at) / RFU PRF1 (11729649_at) / Fold change /veh PRF1 (11729649_at) / RFU, ZNF638 /// ZNF638-IT1 / Fold change vs veh, ZNF638 /// ZNF638-IT1 / RFU, PANK3 / Fold change vs veh, PANK3 / RFU, SH3YL1 / Fold change vs veh, SH3YL1 / RFU, ZEB2 / Fold change vs veh, ZEB2 / RFU, NRIP1 / Fold change vs veh, NRIP1 / RFU, PTTG1IP / Fold change vs veh, PTTG1IP / RFU, CAPN2 / Fold change vs veh, CAPN2 / RFU, MED14 / Fold change vs veh, MED14 / RFU, SNORA58 / Fold change vs veh, SNORA58 / RFU, C1orf63 / Fold change vs veh, C1orf63 / RFU, LRRFIP1 / Fold change vs veh, LRRFIP1 / RFU, NDUFAF7 / Fold change vs veh, NDUFAF7 / RFU, SLC12A2 / Fold change vs veh, SLC12A2 / RFU, IBTK / Fold change vs veh, IBTK / RFU, ESF1 / Fold change vs veh, ESF1 / Fold change vs veh, TMEM50B / RFU, TAOK1 / Fold change vs veh, TAOK1 / RFU, ACBD3 / Fold change vs veh, ACBD3 / RFU, TMA16 / Fold change vs veh, TMA16 / RFU, RWDD3 / Fold change vs veh, RWDD3 / RFU, BCAT1 / Fold change vs veh, BCAT1 / RFU, EDEM3 / Fold change vs veh, EDEM3 / RFU, TMEM33 / Fold change vs veh, TMEM33 / RFU, WDR75 / Fold change vs veh, WDR75 / RFU, AHCTF1 / Fold change vs veh, AHCTF1 / RFU, TFRC / Fold change vs veh, TFRC / RFU, ZDHHC17 / Fold change vs veh, ZDHHC17 / RFU, NOM1 / Fold change vs veh, NOM1 / RFU, ARL8B / Fold change vs veh, ARL8B / RFU, ZBTB11 / Fold change vs veh, ZBTB11 / RFU, TAMM41 / Fold change vs veh, TAMM41 / RFU, KIAA1704 /// LOC100996395 / Fold change vs veh, KIAA1704 /// LOC100996395 / RFU, ING1 / Fold change vs veh, ING1 / RFU, TRMT61B / Fold change vs veh, TRMT61B / RFU, FUBP3 / Fold change vs veh, FUBP3 / RFU, TP53 / Fold change vs veh, TP53 / RFU, TNKS2 / Fold change vs veh, TNKS2 / RFU, ZFP14 / Fold change vs veh, ZFP14 / RFU, ACTR2 / Fold change vs veh, ACTR2 / RFU, PPP3R1 / Fold change vs veh, PPP3R1 / RFU, PIK3R1 / Fold change vs veh, PIK3R1 / RFU, HNRNPA1 / Fold change vs veh, HNRNPA1 / RFU, RNF170 / Fold change vs veh, RNF170 / RFU, ZNF28 / Fold change vs veh, ZNF28 / RFU, RNGTT / Fold change vs veh, RNGTT / RFU, OGT / Fold change vs veh, OGT / RFU, BRD1 / Fold change vs veh, BRD1 / RFU, MARS / Fold change vs veh, MARS / RFU, ZNF655 / Fold change vs veh, ZNF655 / RFU, FAHD1 / Fold change vs veh, FAHD1 / RFU, BDP1 / Fold change vs veh, BDP1 / RFU, LRRCC1 / Fold change vs veh, LRRCC1 / RFU, ARID1A / Fold change vs veh, ARID1A / RFU, ZNF146 / Fold change vs veh, ZNF146 / RFU, ZNF330 / Fold change vs veh, ZNF330 / RFU, GPN3 / Fold change vs veh, GPN3 / RFU, C9orf123 / Fold change vs veh, C9orf123 / RFU, N4BP2L2 / Fold change vs veh, N4BP2L2 / RFU, ARFIP1 / Fold change vs veh, ARFIP1 / RFU, FAM179B / Fold change vs veh, FAM179B / RFU, BCL10 / Fold change vs veh, BCL10 / RFU, UHRF1BP1L / Fold change vs veh, UHRF1BP1L / RFU, BET1 / Fold change vs veh, BET1 / RFU, CNOT2 / Fold change vs veh, CNOT2 / RFU, ZNF268 / Fold change vs veh, ZNF268 / Fold change vs veh, ZNF507 / RFU, DGCR2 / Fold change vs veh, DGCR2 / RFU, WDSUB1 / Fold change vs veh, WDSUB1 / Fold change vs veh, HSP90B1 /// MIR3652 / RFU, ADSS / Fold change vs veh, ADSS / RFU, GK / Fold change vs veh, GK / RFU, ZNF148 / Fold change vs veh, ZNF148 / RFU, TAF9 / Fold change vs veh, TAF9 / RFU, SLC1A5 / Fold change vs veh, SLC1A5 / RFU, SLMO2 / Fold change vs veh, SLMO2 / RFU, ABCC4 / Fold change vs veh, ABCC4 / RFU, LOC101060439 /// RAP1B / Fold change vs veh, LOC101060439 /// RAP1B / RFU, RFX7 / Fold change vs veh, RFX7 / RFU, GTPBP10 / Fold change vs veh, GTPBP10 / RFU, CNEP1R1 / Fold change vs veh, CNEP1R1 / RFU, BIVM-ERCC5 /// ERCC5 / Fold change vs veh, BIVM-ERCC5 /// ERCC5 / RFU, ILF3 / Fold change vs veh, ILF3 / RFU 11762660_at / Fold change /veh 11762660_at / RFU VCAN (11757783_s_at) / Fold change /veh VCAN (11757783_s_at) / RFU DDX43 (11728927_at) / Fold change /veh DDX43 (11728927_at) / RFU KRT8 (11758188_x_at) / Fold change /veh KRT8 (11758188_x_at) / RFU NKD1 (11759106_at) / Fold change /veh NKD1 (11759106_at) / RFU SRD5A1 (11742802_a_at) / Fold change /veh SRD5A1 (11742802_a_at) / RFU TPSAB1 /// TPSB2 (11721975_s_at) / Fold change /veh TPSAB1 /// TPSB2 (11721975_s_at) / RFU GSTM3 (11746129_a_at) / Fold change /veh GSTM3 (11746129_a_at) / RFU IL23R (11737362_x_at) / Fold change /veh IL23R (11737362_x_at) / RFU TMEM51 (11727254_a_at) / Fold change /veh TMEM51 (11727254_a_at) / RFU PIWIL2 (11732686_x_at) / Fold change /veh PIWIL2 (11732686_x_at) / RFU ORM1 (11744905_x_at) / Fold change /veh ORM1 (11744905_x_at) / RFU CCDC152 (11743942_at) / Fold change /veh CCDC152 (11743942_at) / RFU ECM1 (11717891_a_at) / Fold change /veh ECM1 (11717891_a_at) / RFU IL23R (11748794_a_at) / Fold change /veh IL23R (11748794_a_at) / RFU TNFAIP8L3 (11732012_x_at) / Fold change /veh TNFAIP8L3 (11732012_x_at) / RFU MBOAT4 (11741988_at) / Fold change /veh MBOAT4 (11741988_at) / RFU 11764193_at / Fold change /veh 11764193_at / RFU TMEM53 (11763286_at) / Fold change /veh TMEM53 (11763286_at) / RFU MAGEB2 (11727129_at) / Fold change /veh MAGEB2 (11727129_at) / RFU TMEM200A (11744735_a_at) / Fold change /veh TMEM200A (11744735_a_at) / RFU CCDC152 (11751479_a_at) / Fold change /veh CCDC152 (11751479_a_at) / RFU FAM211A (11726209_a_at) / Fold change /veh FAM211A (11726209_a_at) / RFU RGS16 (11746705_a_at) / Fold change /veh RGS16 (11746705_a_at) / RFU VCAN (11755009_s_at) / Fold change /veh VCAN (11755009_s_at) / RFU RHOB (11743442_s_at) / Fold change /veh RHOB (11743442_s_at) / RFU RGS16 (11720943_a_at) / Fold change /veh RGS16 (11720943_a_at) / RFU RGS16 (11720944_at) / Fold change /veh RGS16 (11720944_at) / RFU, VPS4B / Fold change vs veh, VPS4B / RFU, CREB1 / Fold change vs veh, CREB1 / RFU, DNAJC13 / Fold change vs veh, DNAJC13 / RFU, GNAQ / Fold change vs veh, GNAQ / RFU, CDK5R1 / Fold change vs veh, CDK5R1 / RFU, ZRANB3 / Fold change vs veh, ZRANB3 / RFU, CUL4A / Fold change vs veh, CUL4A / RFU, CCNY / Fold change vs veh, CCNY / RFU, UFL1 / Fold change vs veh, UFL1 / RFU, COG3 / Fold change vs veh, COG3 / RFU, DIAPH2 / Fold change vs veh, DIAPH2 / RFU, SKA2 / Fold change vs veh, SKA2 / RFU, AFF3 / Fold change vs veh, AFF3 / RFU, LMF1 / Fold change vs veh, LMF1 / RFU, IPO11 / Fold change vs veh, IPO11 / RFU, DFFB / Fold change vs veh, DFFB / RFU, FOXP1 / Fold change vs veh, FOXP1 / RFU, CARD8 / Fold change vs veh, CARD8 / RFU, STRN3 / Fold change vs veh, STRN3 / RFU, ADK / Fold change vs veh, ADK / RFU, RASSF2 / Fold change vs veh, RASSF2 / RFU, WIPF1 / Fold change vs veh, WIPF1 / RFU, LARP1B / Fold change vs veh, LARP1B / RFU, RASA1 / Fold change vs veh, RASA1 / RFU, RB1 / Fold change vs veh, RB1 / RFU, PPFIA1 / Fold change vs veh, PPFIA1 / RFU, MAT2A / Fold change vs veh, MAT2A / RFU, CCT5 / Fold change vs veh, CCT5 / RFU, WDR92 / Fold change vs veh, WDR92 / RFU, CUX1 / Fold change vs veh, CUX1 / RFU, TTC7A / Fold change vs veh, TTC7A / RFU, TMEM135 / Fold change vs veh, TMEM135 / RFU, DEPTOR / Fold change vs veh, DEPTOR / RFU, CPM / Fold change vs veh, CPM / RFU, DNAJB6 / Fold change vs veh, DNAJB6 / RFU, CACNA2D3 / Fold change vs veh, CACNA2D3 / RFU, DTX4 / Fold change vs veh, DTX4 / RFU, TFCP2 / Fold change vs veh, TFCP2 / RFU, GMCL1 /// GMCL1P1 / Fold change vs veh, GMCL1 /// GMCL1P1 / RFU, AEBP2 / Fold change vs veh, AEBP2 / RFU, SNHG1 /// SNORD22 /// SNORD25 /// SNORD26 /// SNORD27 /// SNORD28 /// SNORD29 /// SNORD31 / Fold change vs veh, SNHG1 /// SNORD22 /// SNORD25 /// SNORD26 /// SNORD27 /// SNORD28 /// SNORD29 /// SNORD31 / Fold change (Aza/veh), C12orf56 (ProbeSet 11735607_a_at) / Fold change (ACY-1035/veh), C12orf56 (ProbeSet 11735607_a_at) / Fold change (Aza/veh), FGFR1OP (ProbeSet 11751329_s_at) / Fold change (ACY-1035/veh), FGFR1OP (ProbeSet 11751329_s_at) / Fold change (Aza/veh), VPS36 (ProbeSet 11739960_a_at) / Fold change (ACY-1035/veh), VPS36 (ProbeSet 11739960_a_at) / RFU SYPL1 (11715823_x_at) / Fold change /veh SYPL1 (11715823_x_at) / RFU IGFBP7 (11715501_s_at) / Fold change /veh IGFBP7 (11715501_s_at) / RFU REEP3 (11722064_at) / Fold change /veh REEP3 (11722064_at) / RFU IGLL1 (11728026_x_at) / Fold change /veh IGLL1 (11728026_x_at): dose or concentration left out as unconfirmed
Settings: MV-4-11 cells, 48 hours

Nc1ncn([C@@H]2O[C@H](CO)[C@@H](O)[C@H]2O)c(=O)n1 [azacitidine]
Fold change /veh NPB (11741838_a_at): 0.96
